Data reported in ChEMBL document CHEMBL3112492, “Antiprotozoan lead discovery by aligning dry and wet screening: prediction, synthesis, and biological assay of novel quinoxalinones” (Bioorg Med Chem, 2014).
Converted amounts (≈) assume the structure as drawn. The source made the active and inactive calls. No cut-off for these calls is given here.

Tests used:
Trichomonas vaginalis [1] = assay: Trichomonastatic activity against Trichomonas vaginalis JH31A at 10 ug/ml after 48 hrs by Neubauer chamber analysis relative to control; type: functional
Leishmania braziliensis = assay: Antiprotozoal activity against metacyclic promastigote stage of Leishmania braziliensis MHOM/PE/95/LQ2 assessed as growth inhibition after 72 hrs by Alamar Blue assay; type: functional, organism-based; details: for IC50: MHOM/PE/95/LQ2, 72 h
Plasmodium falciparum = assay: Antimalarial activity against intraerythrocytic asexual stage of Plasmodium falciparum 3D7 assessed as inhibition of [G-3H]-hypoxanthine uptake by semiautomated microdilution method; type: functional, organism-based
Trypanosoma cruzi [2] = assay: Trypanocidal activity against epimastigote stage of Trypanosoma cruzi CL Brener at 100 ug/mL after 72 hrs by beta-galactosidase reporter gene assay relative to control; type: functional
Acanthamoeba castellanii = assay: Antiprotozoal activity against trophozoite stage of Acanthamoeba castellanii Neff ATCC 30010 after 72 to 120 hrs by Alamar Blue assay; type: functional; details: Acanthamoeba castellanii str. Neff
Trichomonas vaginalis [3] = assay: Trichomonastatic activity against Trichomonas vaginalis JH31A at 1 ug/ml after 24 hrs by Neubauer chamber analysis relative to control; type: functional
J774 [4] = assay: Cytotoxicity against mouse J774 cells at 100 ug/mL after 24 hrs by MTT assay; type: cell-based; details: j774, 24 h
Trichomonas vaginalis [5] = assay: Trichomonastatic activity against Trichomonas vaginalis JH31A at 1 ug/ml after 48 hrs by Neubauer chamber analysis relative to control; type: functional
Trypanosoma cruzi [6] = assay: Trypanocidal activity against epimastigote stage of Trypanosoma cruzi CL Brener at 10 ug/mL after 72 hrs by beta-galactosidase reporter gene assay relative to control; type: functional
[7] = Inhibition of ferriprotoporphyrin-9 biocrystallization by micro-ELISA
Trichomonas vaginalis [8] = assay: Trichomonacidal activity against Trichomonas vaginalis JH31A at 100 ug/ml after 24 hrs by Neubauer chamber analysis relative to control; type: functional
Trichomonas vaginalis [9] = assay: Trichomonacidal activity against Trichomonas vaginalis JH31A at 100 ug/ml after 48 hrs by Neubauer chamber analysis relative to control; type: functional
J774 [10] = assay: Cytotoxicity against mouse J774 cells at 1 ug/mL after 24 hrs by MTT assay; type: cell-based; details: j774, 24 h
Trichomonas vaginalis [11] = assay: Trichomonastatic activity against Trichomonas vaginalis JH31A at 10 ug/ml after 24 hrs by Neubauer chamber analysis relative to control; type: functional
Trypanosoma cruzi [12] = assay: Trypanocidal activity against epimastigote stage of Trypanosoma cruzi CL Brener at 1 ug/mL after 72 hrs by beta-galactosidase reporter gene assay relative to control; type: functional
J774 [13] = assay: Cytotoxicity against mouse J774 cells at 10 ug/mL after 24 hrs by MTT assay; type: cell-based; details: j774, 24 h
Toxoplasma gondii [14] = assay: Antiprotozoal activity against tachyzoite stage of Toxoplasma gondii RH assessed as extrusion of cytoplasmic content by light microscopic analysis; type: functional, organism-based
Toxoplasma gondii [15] = assay: Antiprotozoal activity against tachyzoite stage of Toxoplasma gondii RH assessed as viability at 1 mM after 4 hrs by trypan blue exclusion assay relative to control; type: functional
Toxoplasma gondii [16] = assay: Antiprotozoal activity against tachyzoite stage of Toxoplasma gondii RH assessed as viability at 200 uM after 4 hrs by trypan blue exclusion assay relative to control; type: functional
Toxoplasma gondii [17] = assay: Antiprotozoal activity against tachyzoite stage of Toxoplasma gondii RH assessed as viability at 100 uM after 4 hrs by trypan blue exclusion assay relative to control; type: functional
Toxoplasma gondii [18] = assay: Antiprotozoal activity against tachyzoite stage of Toxoplasma gondii RH assessed as viability at 500 uM after 4 hrs by trypan blue exclusion assay relative to control; type: functional
Trichomonas vaginalis [19] = assay: Trichomonacidal activity against Trichomonas vaginalis JH31A at 10 ug/ml after 24 hrs by Neubauer chamber analysis relative to control; type: functional

Compound	Activity (Trichomonas vaginalis [1]) [%]	growth inhibition (GI) (Leishmania braziliensis)	IC50 (Leishmania braziliensis) [µg/mL]	IC50 (Plasmodium falciparum) [µg/mL]	Activity (Trypanosoma cruzi [2]) [%]	Activity (Acanthamoeba castellanii)	Activity (Trichomonas vaginalis [3]) [%]	Activity (J774 [4]) [%]	Activity (Trichomonas vaginalis [5]) [%]	Activity (Trypanosoma cruzi [6]) [%]	IC50 [7] [µg/mL]	Activity (Trichomonas vaginalis [8]) [%]	Activity (Trichomonas vaginalis [9]) [%]	Activity (J774 [10]) [%]	Activity (Trypanosoma cruzi [12]) [%]	Activity (J774 [13]) [%]	Activity (Toxoplasma gondii [15]) [%]	Activity (Toxoplasma gondii [16]) [%]	Activity (Toxoplasma gondii [17]) [%]	Activity (Toxoplasma gondii [18]) [%]	further results
Br.O=C1CN(CCCCCN2CCc3ccccc3C2)c2ccc([N+](=O)[O-])cc2N1	44.06	Dose-dependent effect	31.3	> 10	87.83	inactive	3.53	100	0	56.77	1530	100	100	9.89	12.49	13.25	–	–	–	–	Activity (Trichomonas vaginalis [11]): 83.76%
Br.O=C1CN(CCCCCN2CCCCCC2)c2ccc([N+](=O)[O-])cc2N1	0	Dose-dependent effect	39.3	5.72	97.73	inactive	2.35	59.14	0	23.84	> 2000	100	100	0	8.35	5.78	0	82	88	0	Activity (Toxoplasma gondii [14]): Active; Activity (Trichomonas vaginalis [11]): 12.94%
Br.CN(C)CCCCCN1CC(=O)N(C)c2cc([N+](=O)[O-])ccc21	11.26	Dose-dependent effect	8.15	> 10	–	inactive	8.98	–	0	–	> 2000	100	100	–	–	–	81	90	81	93	Activity (Trichomonas vaginalis [11]): 45.71%
CCN(CC)CCCC(C)Nc1ccnc2cc(Cl)ccc12 (stereo not given) [CHLOROQUINE]	–	–	–	–	–	–	–	–	–	–	40 (≈ 125 µM)	–	–	–	–	–	–	–	–	–	–
Br.CN1C(=O)CN(CCCCCN2CCCCC2)c2ccc([N+](=O)[O-])cc21	86.52	Dose-dependent effect	9.57	> 10	79.12	inactive	0	61.38	0	60.68	> 2000	100	100	–	7.93	11.57	36	90	96	40	Activity (Trichomonas vaginalis [19]): 92.63%
CC1CS(=O)(=O)CCN1/N=C/c1ccc([N+](=O)[O-])o1 (stereo not given) [NIFURTIMOX]	–	–	–	–	98.73	–	–	25.9	–	90	–	–	–	0	75.5	0.6	–	–	–	–	–
Br.CN1C(=O)CN(CCCCCN2CCCC2)c2ccc([N+](=O)[O-])cc21	67.7	Dose-dependent effect	5.3	> 10	6.36	inactive	0	49.25	4.1	2.51	> 2000	100	100	0	0	0	38	84	89	58	Activity (Trichomonas vaginalis [19]): 89.25%
Br.CN1C(=O)CN(CCCCCN2CCc3ccccc3C2)c2ccc([N+](=O)[O-])cc21	23.28	inactive	–	6.47	19.78	inactive	4.71	99.44	4.1	15.62	950	100	100	–	11.77	24.44	–	–	–	–	Activity (Trichomonas vaginalis [11]): 70.98%
Br.O=C1CN(CCCCCN2CCCCC2)c2ccc([N+](=O)[O-])cc2N1	5.74	Dose-dependent effect	64.6	> 10	82.4	inactive	0	3.36	0	17.68	> 2000	99.37	100	0	1.78	0	0	68	92	0	Activity (Toxoplasma gondii [14]): Active; Activity (Trichomonas vaginalis [11]): 20.94%
Br.CN1C(=O)CN(CCCCCN2CCCCCC2)c2ccc([N+](=O)[O-])cc21	70.41	Dose-dependent effect	5.3	> 10	65.46	inactive	10.98	75.75	2.87	15.38	1950	100	100	–	0	20.24	0	77	81	71	Activity (Toxoplasma gondii [14]): Active; Activity (Trichomonas vaginalis [19]): 91.61%
